Measurements: US20060189546A1, “Compounds for treating autoimmune and demyelinating diseases” (priority 2005, published 2006)

Test system: colorectal cancer cell lines (HT29 & HCT116)
Assay: Microarray gene expression, cells grown with Symadex at the GI50 concentration
Format: cell-based, human
Source text: Two colorectal cancer cell lines (HT29 & HCT116) were chosen for study, whose behavior as rapidly proliferating invasive cells could be generalized to many other such cell types from different tissue origins. The two lines were immortalized colon carcinomas. Their gene expression patterns are known to mimic the behavior of neuro-enteric cells and therefore provide an appropriate simulation of the kinds of regulatory patterns that would be found in cells of similar epithelial or endothelial origin. Cells with these ontological roots are also suitable models for the kinds of autoimmune and inflammatory susceptibilities that are common in tissues of neuroenteric origin, such as those in which inflammatory bowel disease would present itself.
Frozen cell pellets were lysed in triplicate and total RNA isolated by purification over spin columns (all reagents from Ambion). After QC acceptance for purity, total RNA was converted to cRNA by linear amplification and 10 μg samples were applied to CodeLink Human Whole Genome Bioarrays (GE Healthcare and GenUs Biosystems).
Arrays were processed in triplicate and comparisons made after robust statistical analysis of replicate variability. […] False discovery rates and representation in standardized gene ontologies/pathways were then determined by filtering the “fold” changes in expression with open access software packages, EASE and GoMiner, and with Pathways Analysis (Ingenuity Systems). Functional annotations were then explored further in the MedMiner literature search environment.
A listing of these is shown in Table 3, in which the first column data presents the fold change against control, the second column cites the gene symbol, the third column cites the Genbank Accession, and the fourth column provides an abridged description of the gene's function.

CCN(CC)CCNc1ccc2ncn3c4ccc(O)cc4c(=O)c1c23 [Symadex™, 5-[[(diethylamino)ethyl]amino]-8-hydroxyimidazo[4,5,1-de]-acridine-6-one]
fold down-regulation of SULT4A1: ~300 fold
fold down-regulation of SYNE1: 1500 fold
Mean fold change over control: NT5C3 (AA188573): −2.08
Mean fold change over control: SLC9A7 (AA279477): −8.20
Mean fold change over control: PPP2R5A (AA496141): −36.93
Mean fold change over control: ACYP1 (AA664719): −2.07
Mean fold change over control: PRLR (AA708864): −25.92
Mean fold change over control: UBL4 (AA873769): −10.12
Mean fold change over control: PPP1R9A (AB033048): −26.54
Mean fold change over control: MAP6 (AB058781): −12.89
Mean fold change over control: ASAH2 (AF250847): −2.21
Mean fold change over control: MTIF2 (AI064964): −59.05
Mean fold change over control: NEB (AI079911): −6.89
Mean fold change over control: MGAT4A (AI364966): −10.83
Mean fold change over control: EIF2AK4 (AI630242): −15.24
Mean fold change over control: ATP1B4 (AI659245): −8.24
Mean fold change over control: VAPA (AI671488): −12.46
Mean fold change over control: PAFAH1B1 (AI674778): −12.85
Mean fold change over control: PMPCB (AK090763): −15.36
Mean fold change over control: IL1RAP (AK095107): −11.23
Mean fold change over control: PFKL (AK098228): −10.55
Mean fold change over control: KIF5A (AL118561): −11.04
Mean fold change over control: LNX (AL565198): −87.48
Mean fold change over control: ACTA2 (AL713608): −17.00
Mean fold change over control: DHFR (AU127142): −2.95
Mean fold change over control: SIN3B (AW051366): −2.93
Mean fold change over control: NDUFV3 (AW139027): −10.52
Mean fold change over control: TSFM (AW603708): −2.11
Mean fold change over control: PXN (AW969600): −6.00
Mean fold change over control: PTPRG (BC047734): −18.91
Mean fold change over control: TRA2A (BF093914): −2.55
Mean fold change over control: RPL4 (BF308998): −39.17
Mean fold change over control: PLXNA3 (BF926082): −8.04
Mean fold change over control: ITGA9 (BF959890): −27.91
Mean fold change over control: MT2A (BG505162): −2.09
Mean fold change over control: PECAM1 (BG739826): −17.53
Mean fold change over control: NCF1 (BI021745): −33.67
Mean fold change over control: FNTA (BI715309): −9.02
Mean fold change over control: RB1 (BI769614): −84.42
Mean fold change over control: ENG (BM665467): −6.35
Mean fold change over control: MT1A (BM684446): −16.21
Mean fold change over control: RPS3 (BM693455): −68.37
Mean fold change over control: MAPT (BM714794): −26.53
Mean fold change over control: NT5E (BM994339): −17.10
Mean fold change over control: MXD3 (BQ053282): −2.66
Mean fold change over control: RYR3 (BU533957): −2.43
Mean fold change over control: ZNF145 (BU607554): −30.18
Mean fold change over control: CASR (BX106711): −11.45
Mean fold change over control: EIF4EL3 (BX111619): −15.36
Mean fold change over control: GNAL (BX116836): −18.16
Mean fold change over control: GPR1 (CB992712): −11.49
Mean fold change over control: OLR1 (CD678960): −16.33
Mean fold change over control: TMPO (H57815): −2.64
Mean fold change over control: ACVRL1 (NM_000020): −9.43
Mean fold change over control: AGT (NM_000029): −22.71
Mean fold change over control: APOA1 (NM_000039): −13.15
Mean fold change over control: BLM (NM_000057): −2.58
Mean fold change over control: COL1A2 (NM_000089): −54.48
Mean fold change over control: CYP19A1 (NM_000103): −20.65
Mean fold change over control: FBN1 (NM_000138): −13.00
Mean fold change over control: GIPR (NM_000164): −19.73
Mean fold change over control: GLA (NM_000169): −2.51
Mean fold change over control: SPTB (NM_000347): −16.71
Mean fold change over control: ITGA2B (NM_000419): −10.64
Mean fold change over control: NCF2 (NM_000433): −21.83
Mean fold change over control: OXCT (NM_000436): −2.68
Mean fold change over control: SHOX (NM_000451): −7.34
Mean fold change over control: HNF4A (NM_000457): −7.42
Mean fold change over control: NR0B1 (NM_000475): −15.94
Mean fold change over control: TYRP1 (NM_000550): −12.47
Mean fold change over control: IL13RA2 (NM_000640): −9.79
Mean fold change over control: ADH1C (NM_000669): −12.02
Mean fold change over control: CHRNA5 (NM_000745): −2.14
Mean fold change over control: DCK (NM_000788): −1.94
Mean fold change over control: GABRA3 (NM_000808): −10.14
Mean fold change over control: PRIM1 (NM_000946): −3.47
Mean fold change over control: SCNN1G (NM_001039): −14.52
Mean fold change over control: SLC6A4 (NM_001045): −19.44
Mean fold change over control: ADCYAP1 (NM_001117): −21.74
Mean fold change over control: BIRC5 (NM_001168): −1.91
Mean fold change over control: PRDM1 (NM_001198): −3.78
Mean fold change over control: CSE1L (NM_001316): −2.53
Mean fold change over control: TADA2L (NM_001488): −2.04
Mean fold change over control: HSPB2 (NM_001541): −13.76
Mean fold change over control: BGN (NM_001711): −12.57
Mean fold change over control: CD58 (NM_001779): −2.40
Mean fold change over control: CDC2 (NM_001786): −2.09
Mean fold change over control: CDC25C (NM_001790): −2.99
Mean fold change over control: CKS1B (NM_001826): −2.38
Mean fold change over control: CREM (NM_001881): −2.13
Mean fold change over control: DSC3 (NM_001941): −89.97
Mean fold change over control: DUT (NM_001948): −2.08
Mean fold change over control: FBLN1 (NM_001996): −17.42
Mean fold change over control: FCAR (NM_002000): −11.62
Mean fold change over control: H2AFX (NM_002105): −2.31
Mean fold change over control: H2AFZ (NM_002106): −2.35
Mean fold change over control: HMGB1 (NM_002128): −1.97
Mean fold change over control: HNRPA2B1 (NM_002137): −1.93
Mean fold change over control: IL7R (NM_002185): −25.20
Mean fold change over control: ITGAE (NM_002208): −2.12
Mean fold change over control: KCNJ15 (NM_002243): −6.83
Mean fold change over control: KRT13 (NM_002274): −3.34
Mean fold change over control: LTB (NM_002341): −12.57
Mean fold change over control: MAD2L1 (NM_002358): −3.14
Mean fold change over control: MAZ (NM_002383): −1.89
Mean fold change over control: NUDT1 (NM_002452): −1.89
Mean fold change over control: NDUFA6 (NM_002490): −2.51
Mean fold change over control: NDUFB3 (NM_002491): −15.58
Mean fold change over control: NFKBIB (NM_002503): −2.01
Mean fold change over control: NTHL1 (NM_002528): −2.34
Mean fold change over control: PAFAH1B2 (NM_002572): −2.25
Mean fold change over control: PCSK2 (NM_002594): −16.89
Mean fold change over control: POLE2 (NM_002692): −2.62
Mean fold change over control: MAPK13 (NM_002754): −2.14
Mean fold change over control: RAD51 (NM_002875): −2.21
Mean fold change over control: RFC4 (NM_002916): −2.02
Mean fold change over control: RPA3 (NM_002947): −2.54
Mean fold change over control: SFRS3 (NM_003017): −2.84
Mean fold change over control: ITSN1 (NM_003024): −15.06
Mean fold change over control: SNAI2 (NM_003068): −17.45
Mean fold change over control: SRY (NM_003140): −13.79
Mean fold change over control: TFAP2A (NM_003220): −11.00
Mean fold change over control: TK1 (NM_003258): −2.34
Mean fold change over control: NR2E1 (NM_003269): −54.82
Mean fold change over control: TNP1 (NM_003284): −36.20
Mean fold change over control: TTK (NM_003318): −2.24
Mean fold change over control: VRK1 (NM_003384): −2.79
Mean fold change over control: DEK (NM_003472): −2.36
Mean fold change over control: CSRP3 (NM_003476): −26.26
Mean fold change over control: ZNF282 (NM_003575): −31.24
Mean fold change over control: FOXN1 (NM_003593): −9.60
Mean fold change over control: STK6 (NM_003600): −1.92
Mean fold change over control: SEMA7A (NM_003612): −16.54
Mean fold change over control: HAT1 (NM_003642): −2.63
Mean fold change over control: COPS3 (NM_003653): −2.54
Mean fold change over control: CAMK1 (NM_003656): −1.92
Mean fold change over control: IL1RL1 (NM_003856): −28.60
